Experimental findings from BindingDB's records for aid1799744 (Csar, 2012) are described below.

Values joined by “and” are separate entries in the source; they are usually repeats but may differ in a detail not shown here. Equal values may be shown once.

In this assay the target is Mitogen-activated protein kinase 1 (Homo sapiens, UniProt P28482). Kind of assay: Assay 1.
Mitogen-activated protein kinase 1, sequence (P28482 whole entry): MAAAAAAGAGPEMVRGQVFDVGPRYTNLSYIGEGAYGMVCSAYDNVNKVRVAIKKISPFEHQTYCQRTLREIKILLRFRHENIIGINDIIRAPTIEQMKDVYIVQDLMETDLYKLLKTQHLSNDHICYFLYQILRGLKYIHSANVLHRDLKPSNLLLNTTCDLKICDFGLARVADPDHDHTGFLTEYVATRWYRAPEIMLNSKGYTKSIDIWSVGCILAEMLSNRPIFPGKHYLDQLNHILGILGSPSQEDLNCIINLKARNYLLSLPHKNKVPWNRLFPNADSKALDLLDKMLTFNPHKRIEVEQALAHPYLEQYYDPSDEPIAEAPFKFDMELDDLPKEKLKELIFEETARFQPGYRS
Take `CCNc1ncc(C)c(-c2c[nH]c(C(=O)NCc3cccc(O)c3)c2)n1` [erk000484]: the Ki (commonly a dissociation constant, usually derived from enzyme kinetics or from competition with a known ligand) amounted to 68 nM. In the case of `Cc1cnc(NCC[C@@H]2CCCN2C)nc1-c1c[nH]c(C(=O)N[C@H](CO)c2ccccc2)c1` [erk000520] it was 537 nM; in that of `Cc1cnc(Nc2cccc(F)c2C)nc1-c1c[nH]c(C(=O)N[C@H](CO)c2ccccc2)c1` [erk000538], 2 nM; in that of `Cc1cnc(Nc2cccc(C)c2C)nc1-c1c[nH]c(C(=O)N[C@H](CO)c2cccc(F)c2)c1` [erk000539], 4 nM. In the case of `CCCONc1ncc(C)c(-c2c[nH]c(C(=O)N[C@H](CO)c3cccc(C)c3)c2)n1` [erk000614] it was 5 nM; in that of `O=C(c1cc(-c2ccnc(Nc3ccccc3)n2)c[nH]1)N1CCc2ccccc2C1` [erk000057], 525 nM.

In turn, `Cc1cnc(NC2CCCC2)nc1-c1c[nH]c(C(=O)N[C@H](CO)c2ccccc2)c1` [erk000516] displayed a Ki of 2 nM. The molecule `Cc1cnc(N[C@H]2CCOC2)nc1-c1c[nH]c(C(=O)N[C@H](CO)c2cccc(Cl)c2)c1` [erk000631] displayed a Ki of 209 nM.

With `c1ccc2c(Nc3cc(C4CC4)n[nH]3)nc(Nc3ccc4nc[nH]c4c3)nc2c1` [erk000508], the Ki came to 78 nM. `Cc1cnc(N[C@@H]2CCC[C@H](C)[C@@H]2C)nc1-c1c[nH]c(C(=O)N[C@H](CO)c2cccc(Cl)c2)c1` [erk000606] displayed a Ki of 13 nM. Then `CCCONc1ncc(C)c(-c2c[nH]c(C(=O)N[C@H](CO)c3cccc(Cl)c3)c2)n1` [erk000615], with 4 nM; and `Cc1cnc(NCCO)nc1-c1c[nH]c(C(=O)N[C@H](CO)c2ccccc2)c1` [erk000461], with 17 nM. Then `C[C@@H]1CCN(C(=O)CC#N)C[C@@H]1N(C)c1nc(Nc2ccc(N3CCOCC3)cc2)nc2[nH]cnc12` [erk000723], with 407 nM; and `Cc1ccc(Nc2ncc(C)c(-c3c[nH]c(C(=O)N[C@H](CO)c4ccccc4)c3)n2)c(C)c1` [erk000653], with 3 nM. In the case of `CC(=O)NCCNc1ncc(C)c(-c2c[nH]c(C(=O)N[C@H](CO)c3ccccc3)c2)n1` [erk000560] it was 58 nM; in that of `Cc1cnc(Nc2ccccn2)nc1-c1c[nH]c(C(=O)N[C@H](CO)c2cccc(Cl)c2)c1` [erk000611], 71 nM. In turn, `CNc1ncc(C)c(-c2c[nH]c(C(=O)N[C@H](CO)c3ccccc3)c2)n1` [erk000046] showed a Ki of 59 nM. In the case of `CC[C@@H](COC(=O)[C@@H](N)C(C)C)Nc1ncc(C)c(-c2c[nH]c(C(=O)N[C@H](COC(=O)[C@@H](N)C(C)C)c3cccc(Cl)c3)c2)n1` [erk000685] it was 759 nM. Take `Cc1cnc(N[C@H]2CCCC[C@H]2O)nc1-c1c[nH]c(C(=O)N[C@H](CO)c2ccccc2)c1` [erk000465]: the affinity corresponds to a Ki of 7 nM. In turn, `Cc1cccc([C@@H](CO)NC(=O)c2cc(-c3nc(Nc4ccccc4N(C)C)ncc3C)c[nH]2)c1` [erk000532] had a Ki of 50 nM. Then `Cc1ccc(Nc2ncc(C)c(-c3c[nH]c(C(=O)N[C@H](CO)c4cccc(Cl)c4)c3)n2)cc1` [erk000585], with 7 nM; and `Cc1cccc([C@@H](CO)NC(=O)c2cc(-c3nc(NOCC(F)(F)F)ncc3C)c[nH]2)c1` [erk000625], with 4 nM; and `Fc1ccc(-c2n[nH]cc2-c2ccnc(NC3CCCCC3)c2)cc1` [erk000125], with 2570 nM. In the case of `Cc1cnc(Nc2cccc(C(F)(F)F)c2)nc1-c1c[nH]c(C(=O)N[C@H](CO)c2ccccc2)c1` [erk000438] it was 2 nM; in that of `Cc1cnc(NO)nc1-c1c[nH]c(C(=O)N[C@H](CO)c2ccccc2)c1` [erk000656], 2340 nM; in that of `Cc1cnc(N[C@H](CO)C(C)C)nc1-c1c[nH]c(C(=O)N[C@H](CO)c2ccccc2)c1` [erk000488], 14 nM. Then `Cc1cnc(Nc2ccccc2C#N)nc1-c1c[nH]c(C(=O)N[C@H](CO)c2ccccc2)c1` [erk000533], with 2000 nM; and `NCc1ccc(-c2cn[nH]c2-c2c[nH]c(C(=O)NCc3ccc4c(c3)CCO4)c2)cc1C(F)(F)F` [erk000282], with 191 nM; and `CCN1CCC[C@H]1CNc1ncc(C)c(-c2c[nH]c(C(=O)N[C@H](CO)c3ccccc3)c2)n1` [erk000530], with 110 nM and 60 nM. As to `Cc1cnc(Nc2c(Cl)cccc2Cl)nc1-c1c[nH]c(C(=O)N[C@H](CO)c2ccccc2)c1` [erk000564], the affinity corresponds to a Ki of 151 nM. In the case of `Cc1cnc(N)nc1-c1c[nH]c(C(=O)NCc2ccccc2F)c1` [erk000311] it was 4790 nM; in that of `Cc1cnc(NC2CCOCC2)nc1-c1c[nH]c(C(=O)N[C@H](CO)c2cccc(Cl)c2)c1` [erk000584], 8 nM; in that of `CCn1cc(-c2nc(N[C@@H](C)CO)ncc2C)cc1C(=O)N[C@H](CO)c1cccc(Cl)c1` [erk000679], 5 nM. Consider `Cc1cnc(NC2CCCCC2)nc1-c1c[nH]c(C(=O)N[C@H](CO)c2cccc(Cl)c2)c1` [erk000643], for which the affinity corresponds to a Ki of 4 nM. Then `Cc1cnc(-c2ccccc2)nc1-c1c[nH]c(C(=O)N[C@H](CO)c2ccccc2)c1` [erk000501], with 20 nM. Then `CC[C@@H](CO)Nc1ncc(Cl)c(-c2cc(C(=O)N[C@H](CO)c3ccccc3)n(C)c2)n1` [erk000710], with 4 nM. In the case of `CCOP(=O)(OCC)OC[C@H](CC)Nc1ncc(C)c(-c2c[nH]c(C(=O)N[C@H](COP(=O)(OCC)OCC)c3cccc(Cl)c3)c2)n1` [erk000676] it was 1070 nM. Molecule `CC[C@@H](CO)Nc1ncc(C)c(-c2cc(C(=O)N[C@H](CO)c3cccc(Cl)c3)n(COC)c2)n1` [erk000694] returned a Ki of 5 nM. In turn, `CC[C@@H](CO)Nc1ncc(C)c(-c2cc(C(=O)N[C@H](CO)c3cccc(Cl)c3)n(CC)c2)n1` [erk000678] had a Ki of 4 nM.

`CC(C)Nc1cc(-c2c[nH]c(C(=O)N[C@H](CO)c3cccc(Cl)c3)c2)ncn1` [erk000672] showed a Ki of 30 nM. Then `Cc1cnc(N)nc1-c1c[nH]c(C(=O)NCc2c(Cl)cccc2Cl)c1` [erk000627], with 324 nM; and `Cc1cnc(NOCc2ccccc2)nc1-c1c[nH]c(C(=O)N[C@H](CO)c2ccccc2)c1` [erk000649], with 191 nM.

For `Cc1cccc([C@@H](CO)NC(=O)c2cc(-c3nc(N[C@@H]4CCOC4)ncc3C)c[nH]2)c1` [erk000610], the inhibitory constant (Ki) is 10 nM.

In turn, `Cc1cnc(Nc2cccc(CO)c2C)nc1-c1c[nH]c(C(=O)N[C@H](CO)c2ccccc2)c1` [erk000541] yielded a Ki of 1 nM.

The molecule `Cc1cnc(Nc2ccccc2)nc1-c1c[nH]c(C(=O)N[C@H](CO)c2ccccc2)c1` [erk000040] registered a Ki of 4 nM. Against the preceding molecule, the Ki is about 4-fold higher. On to `Cc1cnc(N)nc1-c1cc(C(=O)NCc2ccc(F)c(Cl)c2)n(Cc2ccccc2)c1` [erk000317], for which the Ki came out at 11000 nM. Regarding `Cc1cnc(NCC2CCOCC2)nc1-c1c[nH]c(C(=O)N[C@H](CO)c2cccc(Cl)c2)c1` [erk000639], the Ki amounted to 17 nM.

`Cc1cnc(N[C@H]2CCC[C@@H]2OCc2ccccc2)nc1-c1c[nH]c(C(=O)N[C@H](CO)c2cccc(Cl)c2)c1` [erk000609] displayed a Ki of 46 nM. Compared with the last molecule, the Ki is about 2.7-fold higher. In the case of `Cc1onc(-c2ccccc2)c1-c1ccn(C(=O)NC(C)C)n1` [erk000088] it was 15100 nM; in that of `Cc1cnc(NOC(C)C)nc1-c1c[nH]c(C(=O)N[C@H](CO)c2ccccc2)c1` [erk000494], 10 nM; in that of `Nc1nccc(-c2c[nH]c(C(=O)N[C@H](CO)c3ccccc3)c2)n1` [erk000067], 324 nM. Consider `Cc1cnc(NN(C)C)nc1-c1c[nH]c(C(=O)N[C@H](CO)c2ccccc2)c1` [erk000505], for which the Ki is 7 nM. Compared with the last molecule, the Ki is about 46-fold lower.

Turning to `Cc1cccc([C@@H](CO)NC(=O)c2cc(-c3nc(NC4CCCCC4)ncc3C)c[nH]2)c1` [erk000642], the Ki was 12 nM. Then `Cc1cnc(N)nc1-c1c[nH]c(C(=O)N[C@H](CO)c2cccc(Cl)c2)c1` [erk000691], with 15 nM; and `CCN(CC)CCOc1ccc(Nc2ncc3cc(-c4c(Cl)cccc4Cl)c(=O)n(C)c3n2)cc1` [erk000225], with 174 nM.

Consider `Cc1cnc(Nc2ccccc2)nc1-c1c[nH]c(C(=O)N[C@@H](CO)c2ccc(F)c(Cl)c2)c1` [erk000397], for which the Ki is 4 nM. Then `Cc1cnc(Nc2c(F)cccc2F)nc1-c1c[nH]c(C(=O)N[C@H](CO)c2ccccc2)c1` [erk000561], with 4 nM. In the case of `CNc1ncc(C)c(-c2c[nH]c(C(=O)NCc3cccc4ccccc34)c2)n1` [erk000036] it was 58 nM; in that of `CC1CCN(c2nc(Nc3cc(C4CC4)n[nH]3)c3ccccc3n2)CC1` [erk000284], 65 nM; in that of `Cc1cnc(N)nc1-c1c[nH]c(C(=O)NCc2cccc(F)c2)c1` [erk000626], 1260 nM. In the case of `CCN(CC)c1ccc(Nc2ncc(C)c(-c3c[nH]c(C(=O)N[C@H](CO)c4ccccc4)c3)n2)c(C)c1` [erk000654] it was 52 nM; in that of `Cc1cnc(N[C@H]2CCC[C@H]2OCc2ccccc2)nc1-c1c[nH]c(C(=O)N[C@H](CO)c2cccc(Cl)c2)c1` [erk000608], 17 nM. On to `Cc1ccc(-c2csc(Nc3ncc(C)c(-c4c[nH]c(C(=O)N[C@H](CO)c5ccccc5)c4)n3)n2)cc1` [erk000588], for which the Ki worked out at 10 nM. `Cc1cnc(N)nc1-c1c[nH]c(C(=O)N[C@H](CO)c2ccccc2)c1` [erk000287]: the Ki came out at 1910 nM. Then `Cc1cnc(NC2CCCC2)nc1-c1c[nH]c(C(=O)N[C@H](CO)c2cccc(Cl)c2)c1` [erk000644], with 2 nM; and `Cc1cnc(NC#N)nc1-c1c[nH]c(C(=O)N[C@H](CO)c2ccccc2)c1` [erk000503], with 25 nM; and `Cc1cnc(N[C@@H](C)COC(=O)C(C)C)nc1-c1c[nH]c(C(=O)N[C@H](COC(=O)C(C)C)c2cccc(Cl)c2)c1` [erk000677], with 1320 nM. In the case of `CC[C@@H](COP(=O)(O)O)Nc1ncc(C)c(-c2c[nH]c(C(=O)N[C@H](CO)c3cccc(Cl)c3)c2)n1` [erk000722] it was 417 nM; in that of `CCONc1ncc(Cl)c(-c2c[nH]c(C(=O)N[C@H](CO)c3cccc(C)c3)c2)n1` [erk000705], 4 nM. In the case of `Cc1ccc(Nc2ncc(C)c(-c3c[nH]c(C(=O)N[C@H](CO)c4ccccc4)c3)n2)cc1C` [erk000441] it was 2 nM.
